Results as given in patent publication US20180244611A1, “Modulators of the Cystic Fibrosis Transmembrane Conductance Regulator Protein and Methods of Use” (AbbVie S.à.r.l., priority 2017, published 2018).
One block for each molecule: values may come before it.

Assays:
F508delCFTR [1] = target: T1, F508delCFTR (Homo sapiens, UniProt P13569, DEL508-508); assay: Cell Surface Expression-Horse Radish Peroxidase (CSE-HRP) assay, test compound with co-corrector; format: cell-based; settings: for Maximum % activity (with co-corrector): maximum at any tested concentration;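 as to Maximum % activity (with co-corrector): percent of 2 µM positive control corrector over DMSO; co-corrector is that same compound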
T1 construct: expressed in transfected cells; host or cells: CFBE41o- human lung-derived epithelial cells (CFBE41o-F508delCFTR-HRP), doxycycline-inducible
How it was run: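 CFBE41o- cells expressing F508delCFTR with HRP in the fourth exofacial loop, induced with 0.5 μg/mL doxycycline for 72 h, then treated 18-24 h at 33° C. with compound (8 points, top 20 μM, 3-fold) plus 2 μM co-corrector. Surface HRP read by luminol luminescence; activity normalised to positive control, EC50 from variable-slope sigmoidal fit.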

F508delCFTR [2] = target: T1, F508delCFTR; assay: Cell Surface Expression-Horse Radish Peroxidase (CSE-HRP) assay, test compound without co-corrector; format: cell-based; settings: for Emax: maximum at any tested concentration, without co-corrector; for EC50: test compound without co-corrector;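 as to Emax: percent of on-plate 2 µM positive control corrector response over DMSO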
How it was run: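 CFBE41o- cells expressing F508delCFTR with HRP in the fourth exofacial loop, induced with 0.5 μg/mL doxycycline for 72 h at 37° C, then exposed to compound alone for 18-24 h at 33° C, 8-point 3-fold series from 20 μM. Surface HRP read by luminol luminescence, normalized to positive corrector control versus DMSO; EC50 from variable-slope sigmoidal fit of three replicate plates.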

[3] = normalized to positive control, with 2 μM co-corrector

T1 sequence (P13569 with tags, fused parts or gaps DEL508-508): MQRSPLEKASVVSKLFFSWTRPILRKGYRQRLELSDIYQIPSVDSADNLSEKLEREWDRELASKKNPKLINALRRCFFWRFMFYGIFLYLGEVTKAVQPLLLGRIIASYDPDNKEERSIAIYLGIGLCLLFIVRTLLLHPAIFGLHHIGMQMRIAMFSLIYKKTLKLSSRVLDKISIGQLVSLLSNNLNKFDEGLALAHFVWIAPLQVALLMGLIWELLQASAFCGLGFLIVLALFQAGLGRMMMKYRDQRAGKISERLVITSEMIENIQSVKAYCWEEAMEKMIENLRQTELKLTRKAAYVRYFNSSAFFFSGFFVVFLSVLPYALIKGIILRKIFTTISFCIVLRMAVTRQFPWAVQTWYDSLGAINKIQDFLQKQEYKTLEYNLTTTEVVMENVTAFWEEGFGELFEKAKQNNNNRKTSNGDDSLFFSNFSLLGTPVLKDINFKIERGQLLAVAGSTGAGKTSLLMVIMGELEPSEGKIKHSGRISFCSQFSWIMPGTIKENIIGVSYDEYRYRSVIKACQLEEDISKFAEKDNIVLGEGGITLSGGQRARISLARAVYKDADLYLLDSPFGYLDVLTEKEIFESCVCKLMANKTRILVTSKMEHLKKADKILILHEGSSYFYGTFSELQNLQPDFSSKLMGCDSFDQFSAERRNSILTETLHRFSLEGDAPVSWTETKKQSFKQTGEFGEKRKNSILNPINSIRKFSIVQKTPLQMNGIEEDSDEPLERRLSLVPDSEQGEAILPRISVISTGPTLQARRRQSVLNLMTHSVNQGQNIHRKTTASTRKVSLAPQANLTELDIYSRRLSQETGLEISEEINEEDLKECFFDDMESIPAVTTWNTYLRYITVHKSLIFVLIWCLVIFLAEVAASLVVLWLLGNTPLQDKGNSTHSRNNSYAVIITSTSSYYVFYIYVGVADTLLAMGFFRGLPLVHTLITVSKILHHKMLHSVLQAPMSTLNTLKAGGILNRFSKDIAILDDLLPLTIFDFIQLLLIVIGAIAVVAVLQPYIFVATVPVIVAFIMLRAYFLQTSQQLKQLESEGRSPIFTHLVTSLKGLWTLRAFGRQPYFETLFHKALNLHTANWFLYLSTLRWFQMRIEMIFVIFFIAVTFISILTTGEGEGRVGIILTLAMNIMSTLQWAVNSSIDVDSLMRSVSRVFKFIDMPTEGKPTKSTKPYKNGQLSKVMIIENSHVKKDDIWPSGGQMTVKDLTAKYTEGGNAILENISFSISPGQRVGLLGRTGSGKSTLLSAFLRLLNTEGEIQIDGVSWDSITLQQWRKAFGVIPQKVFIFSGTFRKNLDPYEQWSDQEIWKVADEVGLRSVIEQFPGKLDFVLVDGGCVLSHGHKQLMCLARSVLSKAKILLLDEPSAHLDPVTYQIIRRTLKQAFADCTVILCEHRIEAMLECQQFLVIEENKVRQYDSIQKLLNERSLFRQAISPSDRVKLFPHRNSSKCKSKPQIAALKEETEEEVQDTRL

Structure (SMILES): Cc1ccccc1S(=O)(=O)NC(=O)C1CCc2c(-c3ccccc3)cccc21 (stereo not drawn) [Example II-36, N-(2-methylbenzene-1-sulfonyl)-4-phenyl-2,3-dihydro-1H-indene-1-carboxamide]
Maximum % activity (with co-corrector) (F508delCFTR [1]; [3]): +++ (≥350)
EC50 (F508delCFTR [1]; with 2 μM co-corrector): 3 to 10 µM
Emax (F508delCFTR [2]; normalized to positive control): 50 to 150%
EC50 (F508delCFTR [2]): 3 to 10 µM

Structure (SMILES): O=C(NS(=O)(=O)c1cccc2ccccc12)C1CCCc2c(O)ccc(Br)c21 (stereo not drawn) [II-50]
Maximum % activity (with co-corrector) (F508delCFTR [1]; [3]): ++ (≥150 and <350)
EC50 (F508delCFTR [1]; with 2 μM co-corrector): 3 to 10 µM
Emax (F508delCFTR [2]; normalized to positive control): < 50%
EC50 (F508delCFTR [2]): 3 to 10 µM

Structure (SMILES): COc1ccc2c(c1)[C@@](C)(C(=O)NS(=O)(=O)c1ccccc1C)CC2 [II-18]
Maximum % activity (with co-corrector) (F508delCFTR [1]; [3]): ++ (≥150 and <350)
EC50 (F508delCFTR [1]; with 2 μM co-corrector): 3 to 10 µM
Emax (F508delCFTR [2]; normalized to positive control): < 50%
EC50 (F508delCFTR [2]): 3 to 10 µM

Structure (SMILES): COc1cccc2c1CCC[C@H]2C(=O)NS(=O)(=O)c1ccccc1C [II-13]
Maximum % activity (with co-corrector) (F508delCFTR [1]; [3]): +++ (≥350)
EC50 (F508delCFTR [1]; with 2 μM co-corrector): 3 to 10 µM
Emax (F508delCFTR [2]; normalized to positive control): 50 to 150%
EC50 (F508delCFTR [2]): 3 to 10 µM

Structure (SMILES): COc1cc(CC2(C(=O)NS(=O)(=O)c3cccc4ccccc34)CCc3c(Cl)cccc32)ccn1 (stereo not drawn) [II-72]
Maximum % activity (with co-corrector) (F508delCFTR [1]; [3]): ++ (≥150 and <350)
EC50 (F508delCFTR [1]; with 2 μM co-corrector): < 3 µM
Emax (F508delCFTR [2]; normalized to positive control): 50 to 150%
EC50 (F508delCFTR [2]): < 3 µM

Structure (SMILES): CC1(C(=O)NS(=O)(=O)c2ccccc2)CCc2c(Cl)cccc21 (stereo not drawn) [II-1]
Maximum % activity (with co-corrector) (F508delCFTR [1]; [3]): +++ (≥350)
EC50 (F508delCFTR [1]; with 2 μM co-corrector): 3 to 10 µM
Emax (F508delCFTR [2]; normalized to positive control): 50 to 150%
EC50 (F508delCFTR [2]): 3 to 10 µM

Structure (SMILES): COc1ccc(C2CCC2)c2c1CCC[C@H]2C(=O)NS(=O)(=O)c1cccc2ccccc12 [Example I-61, (1R)-8-cyclobutyl-5-methoxy-N-(naphthalene-1-sulfonyl)-1,2,3,4-tetrahydronaphthalene-1-carboxamide]
Maximum % activity (with co-corrector) (F508delCFTR [1]; [3]): +++ (≥350)
EC50 (F508delCFTR [1]; with 2 μM co-corrector): < 3 µM
Emax (F508delCFTR [2]; normalized to positive control): ≥ 150%
EC50 (F508delCFTR [2]): < 3 µM

Structure (SMILES): CCC1(C(=O)NS(=O)(=O)c2cccc3c(Cl)cccc23)CCc2c(Cl)cccc21 (stereo not drawn) [Example I-39, 4-chloro-N-(5-chloronaphthalene-1-sulfonyl)-1-ethyl-2,3-dihydro-1H-indene-1-carboxamide]
Maximum % activity (with co-corrector) (F508delCFTR [1]; [3]): +++ (≥350)
EC50 (F508delCFTR [1]; with 2 μM co-corrector): < 3 µM
Emax (F508delCFTR [2]; normalized to positive control): 50 to 150%
EC50 (F508delCFTR [2]): < 3 µM

Structure (SMILES): COc1ccc(Cl)c2c1[C@H](C(=O)NS(=O)(=O)c1cccc3ccccc13)CC2 [Example I-72, (1R)-4-chloro-7-methoxy-N-(naphthalene-1-sulfonyl)-2,3-dihydro-1H-indene-1-carboxamide]
Maximum % activity (with co-corrector) (F508delCFTR [1]; [3]): +++ (≥350)
EC50 (F508delCFTR [1]; with 2 μM co-corrector): < 3 µM
Emax (F508delCFTR [2]; normalized to positive control): ≥ 150%
EC50 (F508delCFTR [2]): 3 to 10 µM

Structure (SMILES): COc1ccc(OC)c2c1CC[C@H]2C(=O)NS(=O)(=O)c1cccc2ncccc12 [Example I-92, (1R)-4,7-dimethoxy-N-(quinoline-5-sulfonyl)-2,3-dihydro-1H-indene-1-carboxamide]
Maximum % activity (with co-corrector) (F508delCFTR [1]; [3]): +++ (≥350)
EC50 (F508delCFTR [1]; with 2 μM co-corrector): < 3 µM
Emax (F508delCFTR [2]; normalized to positive control): ≥ 150%
EC50 (F508delCFTR [2]): 3 to 10 µM

Structure (SMILES): COc1ccc(Br)c2c1CCC2C(=O)NS(=O)(=O)c1ccccc1C (stereo not drawn) [II-41]
Maximum % activity (with co-corrector) (F508delCFTR [1]; [3]): +++ (≥350)
EC50 (F508delCFTR [1]; with 2 μM co-corrector): 3 to 10 µM
Emax (F508delCFTR [2]; normalized to positive control): 50 to 150%
EC50 (F508delCFTR [2]): 3 to 10 µM

Structure (SMILES): CCC1(C(=O)NS(=O)(=O)c2cccc3ncccc23)CCc2c(Cl)cccc21 (stereo not drawn) [Example I-42, 4-chloro-1-ethyl-N-(quinoline-5-sulfonyl)-2,3-dihydro-1H-indene-1-carboxamide]
Maximum % activity (with co-corrector) (F508delCFTR [1]; [3]): +++ (≥350)
EC50 (F508delCFTR [1]; with 2 μM co-corrector): < 3 µM
Emax (F508delCFTR [2]; normalized to positive control): ≥ 150%
EC50 (F508delCFTR [2]): < 3 µM

Structure (SMILES): COc1ccc(C)c2c1CC[C@H]2C(=O)NS(=O)(=O)c1cccc2ccccc12 [Example I-108, (1R)-4-methoxy-7-methyl-N-(naphthalene-1-sulfonyl)-2,3-dihydro-1H-indene-1-carboxamide]
Maximum % activity (with co-corrector) (F508delCFTR [1]; [3]): +++ (≥350)
EC50 (F508delCFTR [1]; with 2 μM co-corrector): 3 to 10 µM
Emax (F508delCFTR [2]; normalized to positive control): ≥ 150%
EC50 (F508delCFTR [2]): 3 to 10 µM

Structure (SMILES): CCC1(C(=O)NS(=O)(=O)c2ccc(Br)c3ccccc23)CCc2c(Cl)cccc21 (stereo not drawn) [II-76]
Maximum % activity (with co-corrector) (F508delCFTR [1]; [3]): ++ (≥150 and <350)
EC50 (F508delCFTR [1]; with 2 μM co-corrector): < 3 µM
Emax (F508delCFTR [2]; normalized to positive control): < 50%
EC50 (F508delCFTR [2]): < 3 µM

The remaining lines, values ahead:

Maximum % activity (with co-corrector) (F508delCFTR [1]; [3]): + (<150)
EC50 (F508delCFTR [1]; with 2 μM co-corrector): ≥ 10 µM
Emax (F508delCFTR [2]; normalized to positive control): < 50%
EC50 (F508delCFTR [2]): ≥ 10 µM
Structure (SMILES): COCCS(=O)(=O)NC(=O)C1CCc2c(Cl)cccc21 (stereo not drawn) [III-5]

Maximum % activity (with co-corrector) (F508delCFTR [1]; [3]): +++ (≥350)
EC50 (F508delCFTR [1]; with 2 μM co-corrector): < 3 µM
Emax (F508delCFTR [2]; normalized to positive control): ≥ 150%
EC50 (F508delCFTR [2]): 3 to 10 µM
Structure (SMILES): CCC1(C(=O)NS(=O)(=O)c2cccc3cnccc23)CCc2c(Cl)cccc21 (stereo not drawn) [II-113]

Maximum % activity (with co-corrector) (F508delCFTR [1]; [3]): +++ (≥350)
EC50 (F508delCFTR [1]; with 2 μM co-corrector): < 3 µM
Emax (F508delCFTR [2]; normalized to positive control): ≥ 150%
EC50 (F508delCFTR [2]): < 3 µM
Structure (SMILES): COc1ccc(-c2cccc3c2OC(F)(F)O3)c2c1CCCC2C(=O)NS(=O)(=O)c1cccc2ccccc12 (stereo not drawn) [II-97]

Maximum % activity (with co-corrector) (F508delCFTR [1]; [3]): ++ (≥150 and <350)
EC50 (F508delCFTR [1]; with 2 μM co-corrector): 3 to 10 µM
Emax (F508delCFTR [2]; normalized to positive control): 50 to 150%
EC50 (F508delCFTR [2]): 3 to 10 µM
Structure (SMILES): O=C(NS(=O)(=O)c1cccc2ccccc12)C1CCCc2c(OCC3CCCCC3)ccc(Br)c21 (stereo not drawn) [II-84]

Maximum % activity (with co-corrector) (F508delCFTR [1]; [3]): +++ (≥350)
EC50 (F508delCFTR [1]; with 2 μM co-corrector): < 3 µM
Emax (F508delCFTR [2]; normalized to positive control): ≥ 150%
EC50 (F508delCFTR [2]): 3 to 10 µM
Structure (SMILES): COc1ccc(C#N)c2c1C(C(=O)NS(=O)(=O)c1cccc3ccccc13)CCC2 (stereo not drawn) [II-111]

Maximum % activity (with co-corrector) (F508delCFTR [1]; [3]): + (<150)
EC50 (F508delCFTR [1]; with 2 μM co-corrector): ≥ 10 µM
Emax (F508delCFTR [2]; normalized to positive control): < 50%
EC50 (F508delCFTR [2]): ≥ 10 µM
Structure (SMILES): COc1cccc2c1CCC2C(=O)NS(=O)(=O)c1cncc(Br)c1 (stereo not drawn) [III-65]

EC50 (F508delCFTR [1]; CSE-HRP assay, test compound with 2 μM co-corrector): ≥ 10 µM
Maximum % activity (with co-corrector) (F508delCFTR [1]; normalized to on-plate positive control, with 2 μM co-corrector): + (<150)
EC50 (F508delCFTR [2]; CSE-HRP assay): ≥ 10 µM
Emax (F508delCFTR [2]; normalized to on-plate positive control): < 50%
Structure (SMILES): CCC1(C(=O)NS(=O)(=O)c2c(C)nn(C)c2Cl)CCc2c(Cl)cccc21 (stereo not drawn) [III-131]

Maximum % activity (with co-corrector) (F508delCFTR [1]; [3]): + (<150)
EC50 (F508delCFTR [1]; with 2 μM co-corrector): ≥ 10 µM
Emax (F508delCFTR [2]; normalized to positive control): < 50%
EC50 (F508delCFTR [2]): ≥ 10 µM
Structure (SMILES): CCCC(=O)Nc1ccc(S(=O)(=O)NC(=O)C2CCc3c(OC)cccc32)cc1 (stereo not drawn) [III-43]

Maximum % activity (with co-corrector) (F508delCFTR [1]; [3]): +++ (≥350)
EC50 (F508delCFTR [1]; with 2 μM co-corrector): < 3 µM
Emax (F508delCFTR [2]; normalized to positive control): ≥ 150%
EC50 (F508delCFTR [2]): 3 to 10 µM
Structure (SMILES): COc1cc2c(c(OC)c1)C(C(=O)NS(=O)(=O)c1cccc3ccccc13)CCC2 (stereo not drawn) [II-94]

Maximum % activity (with co-corrector) (F508delCFTR [1]; [3]): ++ (≥150 and <350)
EC50 (F508delCFTR [1]; with 2 μM co-corrector): < 3 µM
Emax (F508delCFTR [2]; normalized to positive control): < 50%
EC50 (F508delCFTR [2]): < 3 µM
Structure (SMILES): CCC1(C(=O)NS(=O)(=O)c2ccccc2OCC(F)F)CCc2c(Cl)cccc21 (stereo not drawn) [II-104]
